The values that follow come from patent US20020051799A1, “Glucosylated hydroxystilbene compounds for treating skin conditions” (priority 2000, published 2002).

For experiment [1] the following is noted: glucosylated form compared with the non glucosylated form; cited from earlier work.
For the next experiment, the system named is tyrosinase. Nature of the experiment: Spectrophotometric tyrosinase assay (255 nm). It counts as biochemical. How it is done: A glucosylated resveratrol (4′,5-dihydroxystilbene-3-O-beta-D-glucoside) (APIN Chemicals N17555p, 29 D Milton Park, Abingdon, Oxon, United Kingdom) was incubated in the presence of an extract of stratum corneum or of a homogenate of hair follicles that had been removed by plucking. Under precise experimental conditions, the affinity of the resveratrol for tyrosinase was higher than for glucosylated resveratrol. This property was advantageously employed to measure the resveratrol liberated in the presence of tyrinosase, determined at 255 nm. This method was adapted from the method described by A. A. Calderon: “A Spectrophotometric Assay for Quantitative Analysis of the Oxidation of 4-hydroxystilbene by Peroxidase-H2O2 Systems: J. of Biochem. and Biophys. (1990) Methods 20: 171-180.
A 200 μl aliquot was removed and 10 μl of tyronisase was added.
Two independent measurements were carried out by determining the optical density at 255 nm over 10 minutes and calculating the slope of the graph (60 to 300 seconds).
Under the same conditions, a calibration curve was produced using resveratrol (1; 2.5; 5; 7.5 and 10 μl) in a volume adjusted to […].

Take `OC[C@H]1O[C@@H](Oc2cc(O)cc(/C=C/c3ccc(O)cc3)c2)[C@H](O)[C@@H](O)[C@@H]1O` [glucosylated resveratrol, 4′,5-dihydroxystilbene-3-O-beta-D-glucoside]: in experiment [1], the antioxidant activity entry was “far inferior”.

As to `Oc1ccc(C=Cc2cc(O)cc(O)c2)cc1` [resveratrol, 3,4′,5-trihydroxystilbene], in the experiment on tyrosinase (compared with glucosylated resveratrol, under precise experimental conditions), the affinity for tyrosinase entry is given as “higher”. Moreover, the “concentrations at which resveratrol action was demonstrated” value in the experiment with tyrosinase (in vitro tests) is reported as “less than 10 μm”.
